From patent US11071743B1, “Effective, non-toxic treatments for brain cancer” (priority 2015, dated 2021)

Columns and labels:
[1] = normal brains; cited from earlier work
glioblastoma = conditions: in lab dishes; cited from earlier work
glioblastoma multiforme = experiment: Example Two: treatment of a patient; assay type: in vivo, human; conditions: dose escalated to 22 mg/kg
Procedure: A person living in Argentina was diagnosed with glioblastoma multiforme in January of 2014 and was immediately treated with surgery, chemotherapy, and radiation.
Shortly thereafter, near the middle of October, the patient began receiving the following regimen, alfacalcidol not being available: valganciclovir, 450 mg twice a day melatonin, 12 mg twice a day
BHT, 700 mg in the morning plus 350 mg at night resveratrol, 175 mg twice a day lycopene, 15 mg once a day
Honokiol, 250 mg twice a day metformin, 500 mg once a day, and vitamin D3, 2800 IU at night.
About two weeks later, bio-absorbable curcumin (from the Life Extension Foundation, described above), 400 mg twice a day, was added to the regimen, and circa November 4th, alfacalcidol was added to the regimen (3 micrograms in the morning).
The supply of alfacalcidol ran out at about that time. At the same time, sugar and other carbohydrate intake was restricted. In February, the dexamethasone dose was cut to 1 and 2 mg in the morning and evening, respectively. […] Alfacalcidol was resumed in April, at a double dose (3 micrograms twice a day) to compensate in part for the previous lapse, at which time the dexamethasone dose was cut to 1 mg twice a day. The tumor continued to show no progression in May, and the alfacalcidol dose was reduced to 2 micrograms twice a day in June, when the metformin dose was raised to […] in the morning. […]

[2] = system: lipid-encapsulated viruses; conditions: in vitro; cited from earlier work

Oc1ccc(C=Cc2cc(O)cc(O)c2)cc1 [Resveratrol]
blood-brain barrier penetration [1]: poorly if at all | anti-glioblastoma effects (glioblastoma): powerful anti-glioblastoma effects

O=C(O)C(Cl)Cl [DCA, dichloroacetate]
side effect of DCA (glioblastoma multiforme): numbness was experienced

Cc1cc(C(C)(C)C)c(O)c(C(C)(C)C)c1 [BHT, butylated hydroxytoluene]
killing of lipid-encapsulated viruses [2]: kill lipid-encapsulated viruses
